Experimental data from patent US7122668B2, “Platinum complexes and their use in therapy” (priority 2002, dated 2006).
Read-outs that look alike come from different tables or passages of the source.

Columns and labels:
CH1cisR = experiment: Microculture tetrazolium (MTS) cell survival assay; assay type: cell-based; conditions: for IC50: 24 hours incubation, MTS; for resistance factor (IC50 resistant/IC50 sensitive): CH1cisR/CH1
Method: (§1) Cytotoxicity of the synthesized complexes was also tested by the MTS method^(21). Accordingly, the compounds were incubated for 24 hours with the corresponding cell lines and the cell survival in compound-treated cultures was evaluated.
(§2) The complexes were incubated for 24 hours with the above mentioned cell lines and the cell survival in compound-treated cultures was evaluated by the (microculture tetrazolium) MTS method as previously reported.

CH1 = experiment: Microculture tetrazolium (MTS) cell survival assay; assay type: cell-based; conditions: 24 hours incubation
Method: as §1, §2

41M = experiment: Microculture tetrazolium (MTS) cell survival assay; assay type: cell-based; conditions: 24 hours incubation
Method: as §1, §2

41McisR = experiment: Microculture tetrazolium (MTS) cell survival assay; assay type: cell-based; conditions: for resistance factor (IC50 resistant/IC50 sensitive): 41McisR/41M; for IC50: 24 hours incubation, MTS
Method: as §1, §2

A2780cisR = experiment: Microculture tetrazolium (MTS) cell survival assay; assay type: cell-based; conditions: for IC50: 24 hours incubation, MTS; for resistance factor (IC50 resistant/IC50 sensitive): A2780cisR/A2780
Method: as §1, §2

A2780 = experiment: Microculture tetrazolium (MTS) cell survival assay; assay type: cell-based; conditions: 24 hours incubation
Method: as §1, §2

calf thymus DNA = experiment: DNA binding (calf thymus DNA platination); conditions: for t1/2 half time of the binding to calf thymus DNA: 10 mM NaClO4, 37° C., ri = 0.08, differential pulse polarography; for ΔTm, 0.01M Na+ / ΔTm, 0.2 M / ΔΔεmax, maximum of the positive CD band at around 275 nm: rb = 0.05; for ΔΔεmax, maximum of the positive CD band at around 275 nm: difference between control and platinated DNA
Method: The formation of calf thymus DNA platination was also examined. To this end, calf thymus DNA was incubated with different compounds (Table 3) in which the following parameters were determined: […]

OV-1063 cells [1] = experiment: Methylene blue (MB) assay of cell survival; assay type: cell-based, human; conditions: mean ± SD
Method: (§3) A human ovarian carcinoma cell line (OV-1063), established at the Hadassah University hospital and human colon carcinoma cell line (C-26) were maintained in RPMI-1640 medium supplemented with 10% FCS, antibiotics and glutamine. All culture medium components were purchased from Biological Industries (Beit-HaEmek, Israel). Both cell lines were maintained at 37° C. in a water-jacketed CO2 incubator.
(§4) Cytotoxicity of the synthesized complexes was tested by the methylene blue (MB) staining assay^(19). A fixed number of exponentially growing cells in 200 μl medium were plated in 96-microwell, flat-bottomed plates. For each of the complexes tested, 4 well were used. Following 24 hr in culture, 20 μl of different concentration of the complexes were added to each well containing untreated cells. Normal saline was added to the controls. Cells were exposed to complexes for 4, 24, or 72 hr. At the end of exposure for a fixed time interval, the treated cells as well as parallel control cells were washed and incubation was continued in fresh medium until termination of the experiment. Following 72 hr of growth, cells were fixed by adding 50 μl of 2.5% of glutaraldehyde to each well for 15 min. Fixed cells were rinsed 10 times with fresh de-ionized water and once with borate buffer (0.1 M, pH=8.5), dried and stained with MB (100 μl of 1% solution in 0.1 M borate buffer, pH=8.5) for 1 hr at room temperature. Stained cells were rinsed thoroughly with de-ionized water to remove any non-cell-bound die and then dried. The MB bound to the fixed cells was extracted by incubation at 37° C. with 200 μl of 0.1N HCl for 1 hr, and the net optical density (OD) of the die in each well was determined by a plate spectrophotometer (Labsystems Multyskan BICHROMATIC, Finland) at 620 nm.

C-26 cells [2] = experiment: Determination of Pt-DNA adducts by FAAS; assay type: cell-based, human; conditions: C-26, 24 hr
Method: (§5) Cells were seeded for 48 hr before one of the drugs was added to the culture medium. After 24 hr of exposure, the complexes were removed and the cells washed twice with ice-cold PBS and pelleted. DNA from platinum-containing material (2*10^6 cells) was extracted from the cell pellet by QIAamp DNA Blood Kit (QIAGEN, Germany) according to the manufacture instructions. DNA yield was determined by measuring the concentration of DNA in the eluate by absorbance at 260 nm.

OV-1063 cells [3] = experiment: Determination of Pt-DNA adducts by FAAS; assay type: cell-based, human; conditions: OV-1063, 24 hr
Method: as §5

C-26 cells [4] = experiment: Platinum complex intracellular accumulation (FAAS); assay type: cell-based, human; conditions: C-26, 24 hr
Method: (§6) Cells were seeded for 48 hr before one of the complexes was added to the culture medium. After 24 hr of exposure, the complexes were removed and the cells washed twice with ice-cold PBS and pelleted. The cells (1*10^6) were dried and mineralized by heating for 10 min in 65% HNO3 (BDH, England)^(22). Samples were dissolved in de-ionized water and each sample was measured at two different dilutions by flameless Zeeman atomic absorption spectrometer (FAAS). The calibration curves included 5 standards of K2PtCl4 stock solution with concentrations ranging from 50 to 250 ng platinum per ml. Platinum content was expressed as picomoles platinum per 1*10^6 cells.
(§7) The Pt content associated with the cells was measured by Atomic Absorption Spectroscopy (AAS).

OV-1063 cells [5] = experiment: Platinum complex intracellular accumulation (FAAS); assay type: cell-based, human; conditions: OV-1063, 24 hr
Method: as §6, §7

C-26 cells [6] = assay type: cell-based; conditions: C-26 cells, mean ± SD
Method: as §3, §4

[7] = 4 h exposure, read-out: IC50, 4 h
[8] = 24 h exposure, read-out: IC50, 24 h
[9] = 72 h exposure, read-out: IC50, 72 h
[10] = listed as cis-[PtCl2(NH3)(pip)]
[11] = listed as cis-[PtCl2(NH3)(pic)]

Molecule | IC50 (CH1cisR) [µM] | resistance factor (IC50 resistant/IC50 sensitive) (CH1cisR) | IC50 (CH1) [µM] | IC50 (41M) [µM] | resistance factor (IC50 resistant/IC50 sensitive) (41McisR) | IC50 (41McisR) [µM] | IC50 (A2780cisR) [µM] | resistance factor (IC50 resistant/IC50 sensitive) (A2780cisR) | IC50 (A2780) [µM] | % IEC/adduct, frequency of interstrand crosslinks (calf thymus DNA) [%] | unwinding angle per adduct (calf thymus DNA) [°] | t1/2 half time of the binding to calf thymus DNA (calf thymus DNA) [min] | ΔTm, 0.01M Na+ (calf thymus DNA) | ΔTm, 0.2 M (calf thymus DNA) | other results
C1CNCCN1.Cl.N.[Cl][Pt][Cl] [Complex 8, Trans-[PtCl2(NH3)(piperazine)].HCl] | 34 ± 4 | 2.8 | 12 ± 3 | 52 ± 5 | 3.0 | 155 ± 12 | 44 ± 4 | 8.8 | 5 ± 1 | 13 | 26.4 | 20 | 6.3 0.C | −1.9 0.C | ΔΔεmax, maximum of the positive CD band at around 275 nm (calf thymus DNA): 0.01
C1CNCCN1.C1CNCCN1.Cl.[Cl][Pt][Cl] [Complex 14, Trans-[PtCl2(piperazine)(piperazine)].HCl] | 53 ± 3 | 2.0 | 26 ± 2 | 43 ± 3 | 3.6 | 153 ± 10 | 43 ± 3 | 2.5 | 17 ± 3 |  |  |  |  |  | 
N.N.[Cl][Pt+2][Cl] [Transplatin, trans-[PtCl2(NH3)2], reference compound] | > 200 |  | > 200 | > 200 |  | > 200 | > 200 |  | > 200 | 12 | 9.4 | 100 | +8.7 0.C | +0.6 0.C | IC50 (OV-1063 cells [1]; [7]): 81 ± 4.3 µM; IC50 (OV-1063 cells [1]; [8]): 73 ± 5.1 µM; IC50 (OV-1063 cells [1]; [9]): 52 ± 3.2 µM; ΔΔεmax, maximum of the positive CD band at around 275 nm (calf thymus DNA): −0.34; Pt-DNA adducts (C-26 cells [2]): 0 pmol Pt/50 μg DNA; Pt-DNA adducts (OV-1063 cells [3]): 0 pmol Pt/50 μg DNA; Penetration to cells (C-26 cells [4]): 384 pmol Pt/1 * 10^6 cells; Penetration to cells (OV-1063 cells [5]): 474 pmol Pt/1 * 10^6 cells; IC50 (C-26 cells [6]; [7]): 64 ± 2 µM; IC50 (C-26 cells [6]; [8]): 46 ± 3.1 µM; IC50 (C-26 cells [6]; [9]): 41 ± 1.7 µM
C1CCNCC1.N.[Cl][Pt][Cl] [Complex 7, cis-[PtCl2(NH3)(piperidine)]] | 263 ± 17 | (7.3) | 36 ± 4 | 64 ± 5 | (4.9) | 315 ± 24 | 234 ± 17 | 9 | 26 ± 3 |  |  | 113 |  |  | % IEC/adduct, frequency of interstrand crosslinks (calf thymus DNA; [10]): 5%; unwinding angle per adduct (calf thymus DNA; [10]): 13.2°; ΔTm, 0.01M Na+ (calf thymus DNA; [10]): −2.5 0.C; ΔTm, 0.2 M (calf thymus DNA; [10]): −6.0 0.C; ΔΔεmax, maximum of the positive CD band at around 275 nm (calf thymus DNA; [10]): 0.93
C1CCNCC1.C1CCNCC1.[Cl][Pt][Cl] [cis-PtCl2(pip)2, reference compound] | 280 ± 12 | (8) | 32 ± 2 | 50 ± 3 | 6 | 300 ± 25 | 250 ± 12 | (16.7) | 15 ± 2 |  |  |  |  |  | 
C1CCNCC1.C1CCNCC1.[Cl][Pt][Cl] [Complex 6, Trans-[PtCl2(piperidine)2]] |  |  |  |  |  |  |  |  |  |  |  |  |  |  | IC50 (CH1; listed as trans-PtCl2(pip)2): 35 ± 2 µM
C1CNCCN1.Cl.N.[Cl][Pt@SP1][Cl] [Complex 16, cis-[PtCl2(NH3)(piperazine)].HCl] | 56 ± 3 | 2.0 | 28 ± 2 | 46 ± 3 | 2.4 | 112 ± 12 | 25 ± 2 | 2.5 | 10 ± 1 | 6 | 13 | 35 | 3.5 0.C | −4.5 0.C | 
Trans-[PtCl2(piperidine)(piperazine)].HCl [Complex 12] | 85 ± 7 | 3.9 | 22 ± 3 | 37 ± 4 | 3.2 | 118 ± 9 | 64 ± 5 | 3.6 | 18 ± 2 |  |  |  |  |  | 
Cc1ccncc1.N.[Cl][Pt][Cl] [trans-[PtCl2(NH3)(4-picoline)]] [reference compound] |  |  |  |  |  |  |  |  |  | 40 | 39.6 | 50 | +7.2 0.C | +0.6 0.C | IC50 (OV-1063 cells [1]; [7]): 18 ± 3.7 µM; IC50 (OV-1063 cells [1]; [8]): 16 ± 3.5 µM; IC50 (OV-1063 cells [1]; [9]): 14 ± 2.3 µM; ΔΔεmax, maximum of the positive CD band at around 275 nm (calf thymus DNA): −0.29; IC50 (C-26 cells [6]; [7]): 12 ± 1.2 µM; IC50 (C-26 cells [6]; [8]): 11 ± 2 µM; IC50 (C-26 cells [6]; [9]): 11 ± 1.1 µM
Trans-[PtCl2(n-butylamine)(piperazine)].HCl [Complex 10] | 19 ± 3 | 1.1 | 17 ± 2 | 32 ± 5 | 1.5 | 48 ± 3 | 28 ± 2 | 1.8 | 16 ± 2 |  |  |  |  |  | 
Cc1ccncc1.N.[Cl][Pt][Cl] [cis-[PtCl2(NH3)(4-picoline)]] [reference compound] |  |  |  |  |  |  |  |  |  |  |  |  |  |  | IC50 (OV-1063 cells [1]; [7]): 6 ± 2.2 µM; IC50 (OV-1063 cells [1]; [8]): 5.1 ± 1.9 µM; IC50 (OV-1063 cells [1]; [9]): 4 ± 1.7 µM; t1/2 half time of the binding to calf thymus DNA (calf thymus DNA; [11]): 21 min; % IEC/adduct, frequency of interstrand crosslinks (calf thymus DNA; [11]): 4%; unwinding angle per adduct (calf thymus DNA; [11]): 12°; ΔTm, 0.01M Na+ (calf thymus DNA; [11]): +1.6 0.C; ΔTm, 0.2 M (calf thymus DNA; [11]): −4.8 0.C; ΔΔεmax, maximum of the positive CD band at around 275 nm (calf thymus DNA; [11]): 0.92; IC50 (C-26 cells [6]; [7]): 5.1 ± 1.2 µM; IC50 (C-26 cells [6]; [8]): 4.7 ± 2.4 µM; IC50 (C-26 cells [6]; [9]): 3.7 ± 1.6 µM
Trans-[PtCl2(isopropylamine)(piperazine)].HCl [Complex 9] | 50 ± 3 | 5.0 | 10 ± 1 | 38 ± 3 | 3.2 | 122 ± 8 | 30 ± 2 | 2.1 | 14 ± 1 |  |  |  |  |  | 
trans-PtCl2(NH3)(4-pip)Cl2 | 94 ± 6 | (6.3) | 15 ± 2 | 27 ± 2 | 5.5 | 150 ± 8 | 20 ± 2 | 4.0 | 5 ± 0.7 |  |  |  |  |  | 
